Measurements taken from ChEMBL document CHEMBL1136141, “2-Phenyl-5,6-dihydro-2H-thieno[3,2-c]pyrazol-3-ol derivatives as new inhibitors of bacterial cell wall biosynthesis” (Bioorg Med Chem Lett, 2003).
≈ marks a conversion by molar mass, not a printed value.

What was measured:
Escherichia coli [1] = test: Minimum inhibitory activity against Escherichia coli GC 4559; type: functional
Escherichia coli [2] = test: Minimum inhibitory activity against Escherichia coli GC 4560; type: functional
Enterococcus faecalis [3] = test: Minimum inhibitory activity against Enterococcus faecalis GC 2242 (VRE); type: functional
Enterococcus faecalis [4] = test: Minimum inhibitory activity against Enterococcus faecalis GC 4555 (ATCC); type: functional
[5] = Minimum inhibitory activity against MSCNS GC 646; type: functional; settings: Staphylococcus
[6] = Minimum inhibitory activity against Streptococcus pneumoniae GC1894 (PRSP); type: functional
[7] = Minimum inhibitory activity in presence of 4% bovine serum albumin against Streptococcus pneumoniae GC1894 (PRSP); type: functional
Staphylococcus aureus [8] = test: Minimum inhibitory activity against Staphylococcus aureus GC 1131 (MRSA); type: functional
Staphylococcus aureus [9] = test: Minimum inhibitory activity against Staphylococcus aureus GC 2216 (ATCC); type: functional
Staphylococcus aureus [10] = test: Minimum inhibitory activity against Staphylococcus aureus GC 4543 (MSSA); type: functional
[11] = target: T1, UDP-N-acetylmuramate--L-alanine ligase (Staphylococcus aureus, UniProt O31211); test: In vitro inhibitory activity against Staphylococcus aureus UDP-N-acetylmuramoyl-L-alanine synthetase
T1 sequence (O31211 whole entry): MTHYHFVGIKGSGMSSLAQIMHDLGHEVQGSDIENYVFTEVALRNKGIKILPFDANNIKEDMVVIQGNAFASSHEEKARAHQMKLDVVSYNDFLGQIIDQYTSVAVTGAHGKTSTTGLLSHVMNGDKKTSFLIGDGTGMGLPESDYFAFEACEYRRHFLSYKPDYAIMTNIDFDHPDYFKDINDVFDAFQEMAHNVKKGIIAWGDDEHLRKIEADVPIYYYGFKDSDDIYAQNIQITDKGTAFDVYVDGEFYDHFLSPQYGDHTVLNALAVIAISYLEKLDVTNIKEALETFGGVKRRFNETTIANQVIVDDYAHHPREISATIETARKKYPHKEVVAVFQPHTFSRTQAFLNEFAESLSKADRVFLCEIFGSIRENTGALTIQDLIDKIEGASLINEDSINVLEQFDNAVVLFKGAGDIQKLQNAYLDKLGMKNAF

[12] = target: T2, UDP-N-acetylenolpyruvoylglucosamine reductase (Staphylococcus aureus, UniProt P61431); test: In vitro inhibitory activity against Staphylococcus aureus UDP-N-acetylmuramate dehydrogenase
T2 sequence (P61431 whole entry): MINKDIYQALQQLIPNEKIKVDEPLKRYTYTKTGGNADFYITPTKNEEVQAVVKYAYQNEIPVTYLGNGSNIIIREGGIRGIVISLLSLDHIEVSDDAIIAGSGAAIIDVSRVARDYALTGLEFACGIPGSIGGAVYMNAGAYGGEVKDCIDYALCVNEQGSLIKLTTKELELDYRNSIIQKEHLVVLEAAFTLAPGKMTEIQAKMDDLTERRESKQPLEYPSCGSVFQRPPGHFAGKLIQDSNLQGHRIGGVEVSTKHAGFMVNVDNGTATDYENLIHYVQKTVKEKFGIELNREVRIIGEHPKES

[13] = target: T3, UDP-N-acetylmuramoylalanine--D-glutamate ligase (Staphylococcus aureus, UniProt P0A091); test: In vitro inhibitory activity against Staphylococcus aureus UDP-N-acetylmuramoyl-L-alanyl-D-glutamate synthetase
T3 sequence (P0A091 whole entry): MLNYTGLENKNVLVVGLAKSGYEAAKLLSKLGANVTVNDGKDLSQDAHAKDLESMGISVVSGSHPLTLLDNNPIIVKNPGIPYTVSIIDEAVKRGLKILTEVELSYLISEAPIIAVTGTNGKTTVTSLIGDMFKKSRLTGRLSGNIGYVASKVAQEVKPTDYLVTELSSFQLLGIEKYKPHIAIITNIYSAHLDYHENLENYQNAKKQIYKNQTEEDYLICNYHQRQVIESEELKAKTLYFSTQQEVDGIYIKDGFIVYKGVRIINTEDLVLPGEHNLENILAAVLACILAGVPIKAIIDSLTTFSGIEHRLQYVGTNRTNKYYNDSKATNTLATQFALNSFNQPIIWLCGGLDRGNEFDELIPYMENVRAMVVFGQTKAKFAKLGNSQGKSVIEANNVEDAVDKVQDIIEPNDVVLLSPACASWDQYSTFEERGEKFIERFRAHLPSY

Bacteria = test: Minimum inhibitory activity against gram negative bacteria; type: functional
[14] = Partition coefficient (logP); type: physicochemical; settings: octanol/water

Row | MIC (Escherichia coli [1]) | MIC (Escherichia coli [2]) | MIC (Enterococcus faecalis [3]) | MIC (Enterococcus faecalis [4]) | MIC [5] | MIC [6] | MIC [7] | MIC (Staphylococcus aureus [8]) | MIC (Staphylococcus aureus [9]) | MIC (Staphylococcus aureus [10]) | IC50 [11] | IC50 [12] | IC50 [13] | MIC (Bacteria) | logP [14] | SMILES
1 | > 128 µg/mL | > 128 µg/mL | 64 µg/mL (≈ 243 µM) | 32 µg/mL (≈ 122 µM) | 1 µg/mL (≈ 3.8 µM) | 4 µg/mL (≈ 15.2 µM) | > 128 µg/mL | 64 µg/mL (≈ 243 µM) | 4 µg/mL (≈ 15.2 µM) | 2 µg/mL (≈ 7.6 µM) | 72.5 µM | 21.3 µM | 36.1 µM | – | – | O=[N+]([O-])c1ccc(-n2nc3c(c2O)SCC3)cc1
2 | > 128 µg/mL | 128 µg/mL (≈ 447 µM) | 8 µg/mL (≈ 27.9 µM) | 16 µg/mL (≈ 55.9 µM) | 2 µg/mL (≈ 6.99 µM) | 0.5 µg/mL (≈ 1.75 µM) | > 128 µg/mL | 4 µg/mL (≈ 14 µM) | 2 µg/mL (≈ 6.99 µM) | 1 µg/mL (≈ 3.49 µM) | > 87.3 µM | 73.4 µM | 67.1 µM | – | – | Oc1c2c(nn1-c1cccc(C(F)(F)F)c1)CCS2
3 | > 128 µg/mL | > 128 µg/mL | > 128 µg/mL | > 128 µg/mL | 128 µg/mL (≈ 492 µM) | 32 µg/mL (≈ 123 µM) | > 128 µg/mL | 128 µg/mL (≈ 492 µM) | 128 µg/mL (≈ 492 µM) | 128 µg/mL (≈ 492 µM) | > 96 µM | > 96 µM | > 96 µM | – | – | CC(C)c1ccc(-n2nc3c(c2O)SCC3)cc1
4 | > 128 µg/mL | 64 µg/mL (≈ 263 µM) | 8 µg/mL (≈ 32.9 µM) | 8 µg/mL (≈ 32.9 µM) | 2 µg/mL (≈ 8.22 µM) | 4 µg/mL (≈ 16.4 µM) | > 128 µg/mL | 32 µg/mL (≈ 132 µM) | 8 µg/mL (≈ 32.9 µM) | 16 µg/mL (≈ 65.8 µM) | 54.7 µM | 57.5 µM | 46.9 µM | – | – | N#Cc1cccc(-n2nc3c(c2O)SCC3)c1
5 | – | – | – | – | – | – | – | – | – | – | – | > 87.1 µM | – | 32 µg/mL (≈ 111 µM) | – | Oc1c2c(nn1-c1ccc(Cl)c(Cl)c1)CSC2
6 | > 128 µg/mL | 128 µg/mL (≈ 389 µM) | 64 µg/mL (≈ 195 µM) | > 128 µg/mL | 128 µg/mL (≈ 389 µM) | 64 µg/mL (≈ 195 µM) | > 128 µg/mL | 128 µg/mL (≈ 389 µM) | 64 µg/mL (≈ 195 µM) | 128 µg/mL (≈ 389 µM) | > 76 µM | 33.5 µM | 74.5 µM | – | – | Oc1c2c(nn1-c1ccc(Cl)cc1)CC(c1ccccc1)S2 (stereo not given)
7 | – | – | – | – | – | – | – | – | – | – | – | > 106 µM | – | > 128 µg/mL | – | Oc1c2c(nn1-c1ccc(Cl)cc1)COC2
8 | – | – | – | – | – | – | – | – | – | – | – | 831 µM | – | > 128 µg/mL | – | Oc1c2c(nn1-c1ccc(Cl)cc1)CSC2
9 | > 128 µg/mL | 64 µg/mL (≈ 263 µM) | 8 µg/mL (≈ 32.9 µM) | 8 µg/mL (≈ 32.9 µM) | 4 µg/mL (≈ 16.4 µM) | 4 µg/mL (≈ 16.4 µM) | > 128 µg/mL | 32 µg/mL (≈ 132 µM) | 8 µg/mL (≈ 32.9 µM) | 16 µg/mL (≈ 65.8 µM) | > 103 µM | > 103 µM | 49.3 µM | – | 2.53 | N#Cc1ccc(-n2nc3c(c2O)SCC3)cc1
10 | > 128 µg/mL | > 128 µg/mL | 16 µg/mL (≈ 63.3 µM) | 16 µg/mL (≈ 63.3 µM) | 4 µg/mL (≈ 15.8 µM) | 1 µg/mL (≈ 3.96 µM) | > 128 µg/mL | 16 µg/mL (≈ 63.3 µM) | 2 µg/mL (≈ 7.91 µM) | 2 µg/mL (≈ 7.91 µM) | 40 µM | 28.1 µM | 45.5 µM | – | 3.06 | Oc1c2c(nn1-c1ccc(Cl)cc1)CCS2
11 | > 128 µg/mL | > 128 µg/mL | 8 µg/mL (≈ 31.7 µM) | 32 µg/mL (≈ 127 µM) | 32 µg/mL (≈ 127 µM) | 2 µg/mL (≈ 7.91 µM) | > 128 µg/mL | 32 µg/mL (≈ 127 µM) | 8 µg/mL (≈ 31.7 µM) | 32 µg/mL (≈ 127 µM) | 62.5 µM | > 98.9 µM | 32.8 µM | – | – | Oc1c2c(nn1-c1cccc(Cl)c1)CCS2
12 | > 128 µg/mL | > 128 µg/mL | 32 µg/mL (≈ 122 µM) | 64 µg/mL (≈ 243 µM) | 32 µg/mL (≈ 122 µM) | 4 µg/mL (≈ 15.2 µM) | > 128 µg/mL | 32 µg/mL (≈ 122 µM) | 16 µg/mL (≈ 60.8 µM) | 32 µg/mL (≈ 122 µM) | 87.7 µM | 23.5 µM | 34.6 µM | – | – | O=[N+]([O-])c1cccc(-n2nc3c(c2O)SCC3)c1
